The values that follow come from ChEMBL document CHEMBL1201862, “PubChem BioAssay data set” (2004).

SMILES strings stand for the structures.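 Cultured in 96-well plates, cells were exposed to test compound for 48 hours across five concentrations. GI50: concentration for 50% inhibition of growth.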 The source made the active and inactive calls. Rule as the data show it: active = GI50 up to about 1.1 µM and inactive = higher.

Among the test systems are A549; HCT-116; HL-60; NCI-H226; NCI-H23; NCI-H522; OVCAR-8; RXF 393; SF-539; SK-MEL-28; SNB-75; TK-10; U-251; UACC-257; ACHN; RPMI-8226; SK-OV-3; SR.
Assay in all cases: DTP human tumour cell line panel, 48 h

By GI50 is commonly meant the concentration giving 50% growth inhibition. Consider `CC(C)N(O)C(=N)c1ccccc1`, for which the GI50 with A549, with HCT-116, with HL-60, with NCI-H226, with NCI-H23 and with NCI-H522 was > 100 µM (inactive) in each case. Moreover, the GI50 in the experiment on OVCAR-8, in the experiment with RXF 393, with SF-539, in the experiment with SK-MEL-28, with SNB-75 and with TK-10 was > 100 µM (inactive) throughout. The GI50 in the experiment on U-251 and with UACC-257 was > 100 µM (inactive) throughout.

As for `CCOC(=O)/C(=C/c1ccc(Cl)cc1)N(CC)CC`, the GI50 in the experiment with A549 was 90.4 µM (inactive); with ACHN, > 100 µM (inactive); in the experiment on HCT-116 it was > 100 µM (inactive); in the experiment with HL-60, > 100 µM (inactive); in the experiment on NCI-H226, > 100 µM (inactive); with NCI-H23 it was > 100 µM (inactive). The GI50 is 89.1 µM (inactive) in the experiment on NCI-H522; > 100 µM (inactive) with OVCAR-8; > 100 µM (inactive) in the experiment on RPMI-8226; > 100 µM (inactive) in the experiment with SF-539; > 100 µM (inactive) with SK-MEL-28; > 100 µM (inactive) in the experiment with SK-OV-3. Also, the GI50 in the experiment on SNB-75, in the experiment on SR, in the experiment with TK-10, with U-251 and with UACC-257 was > 100 µM (inactive) throughout.

Regarding `CCOC(=O)/C(C#N)=C1\N[C@H](C(=O)OCC)CO1`, the GI50 with A549, in the experiment with ACHN, with HCT-116, in the experiment with HL-60, in the experiment on NCI-H226 and in the experiment on NCI-H23 was > 100 µM (inactive) in each case. The GI50 in the experiment on NCI-H522, in the experiment with OVCAR-8, in the experiment on RPMI-8226, in the experiment on RXF 393, in the experiment on SF-539 and in the experiment with SK-MEL-28 was > 100 µM (inactive) each time. For the same compound, the GI50 in the experiment with SR, in the experiment with U-251 and with UACC-257 was > 100 µM (inactive) in each case.

Regarding `O=C(CCc1nnc(S)[nH]1)NC12CC3CC(CC(C3)C1)C2`, the GI50 in the experiment with A549, in the experiment on ACHN, in the experiment with HCT-116, in the experiment with HL-60, in the experiment with NCI-H226 and with NCI-H23 was > 100 µM (inactive) throughout. The GI50 in the experiment with OVCAR-8, in the experiment with RXF 393, with SF-539, with SK-MEL-28, in the experiment with SK-OV-3 and in the experiment with SNB-75 was > 100 µM (inactive) in each case. In addition, the GI50 in the experiment with SR is 1 µM (active); in the experiment with TK-10, > 100 µM (inactive); in the experiment on U-251, > 100 µM (inactive); in the experiment on UACC-257, > 100 µM (inactive).

For the compound `O=CCCCC(Sc1ccccc1)Sc1ccccc1`, the GI50 in the experiment on A549 was 29.6 µM (inactive); with ACHN, 16.3 µM (inactive); in the experiment with HCT-116 it was 12.4 µM (inactive); with HL-60 it was 6.1 µM (inactive); with NCI-H23, 11.5 µM (inactive); in the experiment with NCI-H522 it was > 100 µM (inactive). Further, the GI50 was 17.4 µM (inactive) in the experiment on OVCAR-8; 16 µM (inactive) in the experiment with RPMI-8226; > 10 µM (inactive) in the experiment on RXF 393; 15.8 µM (inactive) with SK-MEL-28; 18.7 µM (inactive) with SK-OV-3; 18.2 µM (inactive) with SNB-75. Moreover, the GI50 in the experiment with SR is 15.6 µM (inactive); in the experiment on TK-10, 32.4 µM (inactive); in the experiment with U-251, 15.5 µM (inactive); with UACC-257, 21.1 µM (inactive).

On to `COC(=O)C(=O)C(C#N)c1ccc(CC#N)cc1` (stereo not given), for which the GI50 in the experiment with A549, in the experiment with ACHN, in the experiment on HCT-116, in the experiment with HL-60, in the experiment on NCI-H226 and with NCI-H23 was > 100 µM (inactive) in each case. For the same compound, the GI50 in the experiment with NCI-H522, in the experiment with RPMI-8226, in the experiment on SF-539, with SK-MEL-28, with SK-OV-3 and in the experiment with SNB-75 was > 100 µM (inactive) throughout. Besides, the GI50 in the experiment on SR, with TK-10, in the experiment on U-251 and in the experiment on UACC-257 was > 100 µM (inactive) throughout.

Turning to `CC1(C)OC(=O)C(=C2CCC(C(=O)Nc3cccc(C(F)(F)F)c3)N2)C(=O)O1` (stereo not given), the GI50 was > 100 µM (inactive) in the experiment on A549; 50.2 µM (inactive) with ACHN; > 100 µM (inactive) in the experiment with HCT-116; 67.8 µM (inactive) in the experiment with HL-60; 91 µM (inactive) in the experiment on NCI-H226; > 100 µM (inactive) in the experiment with NCI-H23. Besides, the GI50 with NCI-H522 was 39.8 µM (inactive); with OVCAR-8, > 100 µM (inactive); in the experiment with RPMI-8226, 51.2 µM (inactive); in the experiment on RXF 393, 84.1 µM (inactive); in the experiment on SF-539, > 100 µM (inactive); in the experiment on SK-MEL-28, 97.7 µM (inactive). Besides, the GI50 was > 100 µM (inactive) in the experiment on SK-OV-3; > 100 µM (inactive) in the experiment on SNB-75; 86.9 µM (inactive) with TK-10; > 100 µM (inactive) in the experiment on U-251; 40.3 µM (inactive) in the experiment with UACC-257.

Take `O=[N+]([O-])c1cccc(C2=NN(c3ccccc3)C[N+](c3ccc(Br)cc3)=N2)c1`: the GI50 is > 100 µM (inactive) in the experiment on A549; 93.5 µM (inactive) in the experiment on ACHN; 97.1 µM (inactive) in the experiment on HCT-116; > 100 µM (inactive) in the experiment on NCI-H23; 77.1 µM (inactive) in the experiment on NCI-H522; > 100 µM (inactive) in the experiment with OVCAR-8. Further, the GI50 with RPMI-8226 was 82 µM (inactive); in the experiment with RXF 393 it was > 100 µM (inactive); in the experiment on SF-539, > 100 µM (inactive); in the experiment with SK-MEL-28 it was > 100 µM (inactive); in the experiment with SK-OV-3, > 100 µM (inactive); with SNB-75 it was > 100 µM (inactive). Also, the GI50 with SR was < 0.01 µM (active); in the experiment on TK-10, > 100 µM (inactive); in the experiment on U-251 it was > 100 µM (inactive); with UACC-257, > 100 µM (inactive).

For `CCCC/C=C/C=C/C=C/CCCCCCCC(=O)OCC(COC(=O)CCCCCCC/C=C/C1C=CC(CCCC)C(C(=O)O)C1C(=O)O)OC(=O)CCCCCCC/C=C/C=C/C=C/CCCC.OCCNCO` (stereo not given), the GI50 was 18.8 µM (inactive) in the experiment on A549; 19 µM (inactive) in the experiment with ACHN; 17 µM (inactive) in the experiment on HCT-116; 21.9 µM (inactive) in the experiment with HL-60; 17.5 µM (inactive) in the experiment with NCI-H226; 19.4 µM (inactive) in the experiment with NCI-H23. Moreover, the GI50 in the experiment on OVCAR-8 is 19.6 µM (inactive); in the experiment on RPMI-8226 it was 3.78 µM (inactive); with SF-539 it was 19 µM (inactive); with SK-MEL-28 it was 18.3 µM (inactive); in the experiment on SK-OV-3 it was 23.7 µM (inactive); in the experiment on SNB-75 it was 19.2 µM (inactive). In addition, the GI50 in the experiment on TK-10 and with UACC-257 was 19.1 µM (inactive) each time.

With `Cc1nn2c(nc1=O)sc1ccc3ccccc3c12`, the GI50 in the experiment on A549, with ACHN, with HCT-116, in the experiment with HL-60, in the experiment on NCI-H226 and in the experiment with NCI-H23 was > 100 µM (inactive) each time. The GI50 in the experiment on OVCAR-8, in the experiment on RXF 393, in the experiment on SF-539, in the experiment on SK-MEL-28, in the experiment with SK-OV-3 and in the experiment on SNB-75 was > 100 µM (inactive) each time. Also, the GI50 in the experiment with SR, in the experiment with TK-10, in the experiment on U-251 and in the experiment with UACC-257 was > 100 µM (inactive) throughout.

As to `CS(=O)(=O)N(CCC#N)c1ccc(/C=C2\N=C(c3ccccc3Cl)OC2=O)cc1`, the GI50 with A549, in the experiment with ACHN, in the experiment on HCT-116, with HL-60, in the experiment with NCI-H226 and in the experiment on NCI-H23 was > 100 µM (inactive) throughout. For the same compound, the GI50 with NCI-H522, in the experiment on OVCAR-8, in the experiment on RPMI-8226, in the experiment with RXF 393, in the experiment on SF-539 and in the experiment on SK-MEL-28 was > 100 µM (inactive) each time. Moreover, the GI50 in the experiment with SK-OV-3, in the experiment on SNB-75, in the experiment with TK-10, in the experiment with U-251 and with UACC-257 was > 100 µM (inactive) throughout.

As to `O=C1/C(=C/c2ccccc2Cl)COc2ccccc21`, the GI50 with A549 was 22.6 µM (inactive); in the experiment with ACHN, 19.1 µM (inactive); in the experiment with HCT-116, 4.75 µM (inactive); with HL-60, 17.6 µM (inactive); in the experiment on NCI-H23, 19.1 µM (inactive); with NCI-H522, 16.6 µM (inactive). Further, the GI50 in the experiment on OVCAR-8 was 17.2 µM (inactive); in the experiment with RPMI-8226 it was 3.53 µM (inactive); in the experiment on RXF 393, 15.5 µM (inactive); in the experiment on SF-539 it was 17.3 µM (inactive); in the experiment on SK-MEL-28, 16.3 µM (inactive); with SK-OV-3, 32.6 µM (inactive). Moreover, the GI50 was 18 µM (inactive) in the experiment on SNB-75, 13.8 µM (inactive) with TK-10, 13.7 µM (inactive) in the experiment on U-251 and 15.1 µM (inactive) in the experiment on UACC-257.
